Source: patent US20110201869A1, “METHOD AND APPARATUS FOR ENHANCED TRANSDERMAL DIFFUSION” (OBJ LIMITED, priority 2008, published 2011)
One block for each compound: values may come before it.

Tests used:
[1] = Methyl Nicotinate Laser-Doppler vasodilation model (transdermal delivery in vivo); parameters: species or system human
Text: FIG. 7 depicts the enhancing effects of the present invention on the delivery of Methyl Nicotinate through human skin in vivo. The Methyl Nicotinate Laser-Doppler vasodilation model was used (see Hollaway et al, J. Invest Dermatol 69:306-309, 1977; Wester et al., J. Invest Dermatol 83:515-517, 1984). […] In short, successful transdermal delivery of the rubifacient Methyl Nicotinate through the skin results in pronounced vasodilation, increased perfusion and erythema. […] The Methyl Nicotinate induced vasodilation can be measured using a non-invasive Laser Doppler Flow or Perfusion meter with data being provided as a numeric value equitable to local in vivo blood perfusion. The present experiment involved the saturation of 4 cm^2 tissue paper units with Methyl Nicotinate (5 mmolar in PBS). The Methyl Nicotinate tissues were applied to the skin of the volar forearm. The present invention (4 cm^2) and the passive surrogate units were placed over the Methyl Nicotinate soaked paper units. For 5 minutes one active and one passive unit were applied adjacently onto the skin of the forearm. Subsequently, all materials were removed from the skin and the skin was patted dry. Laser Doppler perfusion probes (Moor Instruments Laser Doppler Perfusion Meter) were placed over both areas and blood perfusion rates were monitored for a 30 minute period. […]

[2] = in vitro Franz Cell diffusion study through excised epidermis; format: in vitro ADME, piglet
Protocol: FIG. 4 is a plot of the substance Tetracaine through excised piglet ear epidermis in an in vitro Franz Cell diffusion study. Epidermal membranes were obtained by heat separation (60 sec at 60° C., Kligman and Christophers 1963). Skin integrity was determined by conductance measurement before the experiment. Skin sections from each ear were matched over the groups per experiment. Epidermal membranes were placed between the donor and receptor compartments of Franz-type diffusion cells with the stratum corneum facing the donor chamber. The epidermal membranes were equilibrated with the receptor solution (USP PBS, pH 7.4) for 30 min. The receptor compartment of the cell was immersed in a water bath at 37±0.5° C., and stirred every 5 min throughout the experiment. After equilibration, the donor solution consisting of 1 mL of 2 (FIG. 4a) or 4% Tetracaine HCL (FIG. 4B; Sigma) in PBS was added, and the present invention was suspended 3 mm above the surface of the donor fluid (i.e. 8 mm above the epidermal surface). The passive diffusion cells received the same donor drug concentration and were covered with parafilm only, i.e. no material of the present invention was applied. The administration period was 0-1 hr. Samples of the receptor solution were removed and replaced with fresh buffer over a 60 minute period. All samples were analysed for Tetracaine hydrochloride content by spectrophotometric detection (absorbance at 229 nm). The cumulative amount of Tetracaine hydrochloride in the receptor compartment versus time was plotted for both experiments. After the diffusion experiment the skin, still fixed in the diffusion chamber, was stained with standard HE dye. The diffusion area was investigated under a microscope for the occurrence of damage to the skin. Data derived from epidermis with low skin integrity was excluded from analysis and graphical depiction.
FIG. 5 is a plot of the substance Sumatriptan through excised piglet ear epidermis in an in vitro Franz Cell diffusion study. […] All samples were analysed for Sumatriptan content by spectrophotometric detection (absorbance at 285 nm). […]

delivery through human skin in vivo with the present invention compared with passive diffusion (blood perfusion by Laser Doppler) ([1]; 5 mmolar in PBS, 5 minutes application on volar forearm, perfusion monitored 30 minutes, FIG. 7): effective at enhanced delivery | diffusion with 480 gauss / 300 poles per meter versus 120 gauss / 500 poles per meter device ([1]; 2 milli-molar, human forearm skin in vivo, FIG. 8): similar
SMILES: COC(=O)c1cccnc1 [Methyl Nicotinate]

diffusion through excised epidermis under the influence of the present invention compared to passive diffusion ([2]; Sumatriptan succinate 2 mg/ml donor, 0-30 min, FIG. 5): enhanced diffusion
SMILES: CNS(=O)(=O)Cc1ccc2[nH]cc(CCN(C)C)c2c1 [Sumatriptan]

diffusion through excised epidermis under the influence of the present invention compared to passive diffusion ([2]; 2% Tetracaine HCL in PBS donor, 0-1 hr, magnetic device suspended 8 mm above epidermal surface, FIG. 4A): enhanced diffusion | diffusion through excised epidermis under the influence of the present invention compared to passive diffusion ([2]; 4% Tetracaine HCL in PBS donor, 0-1 hr, magnetic device suspended 8 mm above epidermal surface, FIG. 4B): enhanced diffusion
SMILES: CCCCNc1ccc(C(=O)OCCN(C)C)cc1 [Tetracaine]
